Each block holds one compound with its values, some of them ahead of it.
What was measured:
Format in all cases: physicochemical
[1] = Behaviour under long-term, accelerated and harsh storage conditions (moisture absorption, stability of form)
[2] = Dynamic vapor sorption (DVS) hygroscopicity; conditions: for Hygroscopic degree (DVS): 25° C.
Description: Dynamic Vapor Sorption (DVS) analysis was conducted on the DVS advantage (Surface measurement system, United Kingdom) analyzer at 25° C. and relative humidity of 0-90%.
10 mg of sample was placed in the wire mesh steam sorption balance pan and attached to the DVS-advantage dynamic vapor adsorption balance by the Surface Measurement Systems. […] After the completion of the sorption cycle, the sample was dried using the same procedure, during which the relative humidity was returned to a relative humidity […] all the time. The change in weight during the sorption/desorption cycle (repetition of 3 times) was recorded to determine the hygroscopicity of the sample.

[3] = Comparative test of stability (HPLC purity on storage) of amorphous form and crystalline polymorphs of the hydrochloride salt (Test Example 2); conditions: listed as HCl amorphous
Description: High performance liquid chromatography (HPLC) was conducted on the Agilent 1100/1200 series HPLC Systems (Agilent, USA) analyzer for the purpose of purity and content analysis including stability test and the like. The analysis conditions of the HPLC are as follows.
To compare the stability of amorphous hydrochloride salt form and crystalline hydrochloride salt polymorphs, each of samples of the polymorphs and amorphous form of the hydrochloride salt of the compound of chemical formula (1) prepared in Examples 4 to 6 was left for 4 weeks under long term conditions (e.g., temperature of 25±2° C. and relative humidity of 60±5%) and accelerated conditions (e.g., temperature of 40° C. and relative humidity of 75%). Each sample was analyzed by high performance liquid chromatography (HPLC) according to the purity measurement conditions of the compound of chemical formula (1).

[4] = Comparative test of solubility of amorphous form and crystalline polymorphs of the hydrochloride salt (Test Example 1); conditions: 25° C., loading of 1.0 mg/mL, LOD 0.1 μg/mL, based on compound of formula (1), listed as HCl cryst. hydrate
Description: To compare the solubility of amorphous hydrochloride salt form and crystalline hydrochloride salt polymorphs, each of the polymorphs and amorphous form of the hydrochloride salt of the compound of chemical formula (1) prepared in Examples 4 to 6 was used to prepare samples under the following conditions according to non-ionized water and acidity (pH). Thereafter, each solution was analyzed by high performance liquid chromatography (HPLC) according to the measurement conditions of the content of the compound of chemical formula (1) to measure the dissolved amount (LOD: 0.1 μg/mL) based on the compound of chemical formula (1).
Specifically, 5 mg of each polymorph was added to 5 ml of water and mixed using a Voltamixer at 20-25° C. Thereafter, the filtrate obtained by filtrating using GH Polypro membrane Acrodisc, PALL (pore size 0.2 μm) was diluted with a dilution solvent for high performance liquid chromatography (HPLC) at a ratio of 1/100, to obtain the samples.

SMILES: C=CC(=O)N1CCC(Oc2cc3c(Nc4ccc(Cl)c(Cl)c4F)ncnc3cc2OC)CC1 [Example 3, 1-(4-(4-(3,4-dichloro-2-fluorophenylamino)-7-methoxyquinazolin-6-yloxy)piperidin-1-yl)prop-2-en-1-one]
Stability under storage conditions (in words) ([1]; long-term (25° C., 60% RH), accelerated (40° C., 75% RH) and harsh (60° C.) conditions): sufficiently stable

SMILES: C=CC(=O)N1CCC(Oc2cc3c(Nc4ccc(Cl)c(Cl)c4F)ncnc3cc2OC)CC1 [Example 2, 1-(4-(4-(3,4-dichloro-2-fluorophenylamino)-7-methoxyquinazolin-6-yloxy)piperidin-1-yl)prop-2-en-1-one]
Hygroscopic degree (DVS) ([2]; relative humidity range of 10%-50%): 0.3-0.5%
Hygroscopic degree (DVS) ([2]; relative humidity range of 50-90%): about 3%

SMILES: C=CC(=O)N1CCC(Oc2cc3c(Nc4ccc(Cl)c(Cl)c4F)ncnc3cc2OC)CC1 [Example 4, 1-(4-(4-(3,4-dichloro-2-fluorophenylamino)-7-methoxyquinazolin-6-yloxy)piperidin-1-yl)prop-2-en-1-one]
Solubility, Water [4]: <LOD

More lines, now with the values ahead:

Moisture absorption on storage (in words) ([1]; long-term (25° C., 60% RH) and accelerated (40° C., 75% RH) conditions): did not absorb moisture
SMILES: C=CC(=O)N1CCC(Oc2cc3c(Nc4ccc(Cl)c(Cl)c4F)ncnc3cc2OC)CC1 [Example 5, 1-(4-(4-(3,4-dichloro-2-fluorophenylamino)-7-methoxyquinazolin-6-yloxy)piperidin-1-yl)prop-2-en-1-one]

Hygroscopic degree (DVS), in words ([2]; relative humidity range of 10-90%): very high hygroscopic degree
Moisture absorption on storage ([1]; 25° C., 60% relative humidity and 40° C., 75% relative humidity): 7-9%
Purity (HPLC, %) 3 days ([3]; 25 ± 2° C., 60 ± 5% RH): 98.0%
Purity (HPLC, %) Start ([3]; 25 ± 2° C., 60 ± 5% RH): 98.0%
Purity (HPLC, %) Week 1 ([3]; 25 ± 2° C., 60 ± 5% RH): 98.0%
Purity (HPLC, %) Week 2 ([3]; 25 ± 2° C., 60 ± 5% RH): 97.9%
Purity (HPLC, %) Week 4 ([3]; 25 ± 2° C., 60 ± 5% RH): 97.9%
Purity (HPLC, %) 3 days ([3]; 40 ± 2° C., 75 ± 5% RH): 97.9%
Purity (HPLC, %) Start ([3]; 40 ± 2° C., 75 ± 5% RH): 98.0%
Purity (HPLC, %) Week 1 ([3]; 40 ± 2° C., 75 ± 5% RH): 97.9%
Purity (HPLC, %) Week 2 ([3]; 40 ± 2° C., 75 ± 5% RH): 97.8%
Purity (HPLC, %) Week 4 ([3]; 40 ± 2° C., 75 ± 5% RH): 97.6%
SMILES: C=CC(=O)N1CCC(Oc2cc3c(Nc4ccc(Cl)c(Cl)c4F)ncnc3cc2OC)CC1 [Example 6, 1-(4-(4-(3,4-dichloro-2-fluorophenylamino)-7-methoxyquinazolin-6-yloxy)piperidin-1-yl)prop-2-en-1-one]

Reference: US11883402B2, “Crystalline forms of a quinazoline compound and its hydrochloride salts” (Hanmi Pharmaceutical Co., Ltd., priority 2018, dated 2024)
